pIC50: −log10 of the molar value. Active and inactive are the calls of the source. The calls are words filed in the database; no cut-off is given here.
Tests used:
MCF7 = experiment: cells; details: Homo sapiens, MCF7, 72 h
[1] = biological target: DNA topoisomerase 2-alpha (Homo sapiens) (UniProt P11388); experiment: Inhibition of human topoisomerase-2 at 100 uM using supercoiled pBR322 DNA as substrate after 10 to 15 mins by ethidium bromide staining based electrophoresis method
[2] = biological target: Poly [ADP-ribose] polymerase 1 (Homo sapiens, UniProt P09874); experiment: Inhibition of PARP1 (unknown origin) assessed as reduction in biotinylated poly(ADP-ribose) incorporation on to histone protein by ELISA based colorimetric assay
Poly [ADP-ribose] polymerase 1, sequence (P09874 whole entry): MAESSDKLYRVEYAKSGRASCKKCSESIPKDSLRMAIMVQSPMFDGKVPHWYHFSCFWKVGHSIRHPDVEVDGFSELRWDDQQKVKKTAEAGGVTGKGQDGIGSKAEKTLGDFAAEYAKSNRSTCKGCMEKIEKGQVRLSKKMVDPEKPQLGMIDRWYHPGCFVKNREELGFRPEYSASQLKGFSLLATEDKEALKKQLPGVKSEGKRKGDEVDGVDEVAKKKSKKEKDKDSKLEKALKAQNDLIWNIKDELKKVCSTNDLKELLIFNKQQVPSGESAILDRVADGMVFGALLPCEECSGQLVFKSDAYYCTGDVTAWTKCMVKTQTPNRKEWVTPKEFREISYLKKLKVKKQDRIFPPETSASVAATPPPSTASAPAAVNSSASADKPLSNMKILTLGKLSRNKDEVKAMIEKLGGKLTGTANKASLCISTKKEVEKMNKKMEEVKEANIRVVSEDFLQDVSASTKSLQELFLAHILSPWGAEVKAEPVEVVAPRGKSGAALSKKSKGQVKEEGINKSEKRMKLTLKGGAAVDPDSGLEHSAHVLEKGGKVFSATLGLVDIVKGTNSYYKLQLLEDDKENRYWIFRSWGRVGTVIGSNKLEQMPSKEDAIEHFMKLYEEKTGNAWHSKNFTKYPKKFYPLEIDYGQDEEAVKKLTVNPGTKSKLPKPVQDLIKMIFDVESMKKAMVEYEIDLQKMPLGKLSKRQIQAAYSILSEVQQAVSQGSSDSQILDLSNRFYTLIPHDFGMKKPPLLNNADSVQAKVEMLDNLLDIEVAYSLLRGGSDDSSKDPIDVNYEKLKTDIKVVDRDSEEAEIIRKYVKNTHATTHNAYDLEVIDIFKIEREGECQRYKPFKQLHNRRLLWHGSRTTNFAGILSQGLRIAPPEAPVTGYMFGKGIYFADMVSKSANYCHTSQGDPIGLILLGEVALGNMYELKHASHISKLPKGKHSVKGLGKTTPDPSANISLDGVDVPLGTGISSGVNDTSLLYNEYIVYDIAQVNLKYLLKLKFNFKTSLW

HCT-116 = experiment: Antiproliferative activity against human HCT116 cells expressing topoisomerase-1 after 72 hrs by MTT assay; assay type: functional, cell-based; details: HCT-116, 72 h
HCC1937 = experiment: Antiproliferative activity against human HCC1937 cells harboring BRCA1 mutant after 72 hrs by MTT assay; assay type: functional, cell-based; details: HCC1937, 72 h

DNA topoisomerase 2-alpha (Homo sapiens), sequence (P11388 whole entry): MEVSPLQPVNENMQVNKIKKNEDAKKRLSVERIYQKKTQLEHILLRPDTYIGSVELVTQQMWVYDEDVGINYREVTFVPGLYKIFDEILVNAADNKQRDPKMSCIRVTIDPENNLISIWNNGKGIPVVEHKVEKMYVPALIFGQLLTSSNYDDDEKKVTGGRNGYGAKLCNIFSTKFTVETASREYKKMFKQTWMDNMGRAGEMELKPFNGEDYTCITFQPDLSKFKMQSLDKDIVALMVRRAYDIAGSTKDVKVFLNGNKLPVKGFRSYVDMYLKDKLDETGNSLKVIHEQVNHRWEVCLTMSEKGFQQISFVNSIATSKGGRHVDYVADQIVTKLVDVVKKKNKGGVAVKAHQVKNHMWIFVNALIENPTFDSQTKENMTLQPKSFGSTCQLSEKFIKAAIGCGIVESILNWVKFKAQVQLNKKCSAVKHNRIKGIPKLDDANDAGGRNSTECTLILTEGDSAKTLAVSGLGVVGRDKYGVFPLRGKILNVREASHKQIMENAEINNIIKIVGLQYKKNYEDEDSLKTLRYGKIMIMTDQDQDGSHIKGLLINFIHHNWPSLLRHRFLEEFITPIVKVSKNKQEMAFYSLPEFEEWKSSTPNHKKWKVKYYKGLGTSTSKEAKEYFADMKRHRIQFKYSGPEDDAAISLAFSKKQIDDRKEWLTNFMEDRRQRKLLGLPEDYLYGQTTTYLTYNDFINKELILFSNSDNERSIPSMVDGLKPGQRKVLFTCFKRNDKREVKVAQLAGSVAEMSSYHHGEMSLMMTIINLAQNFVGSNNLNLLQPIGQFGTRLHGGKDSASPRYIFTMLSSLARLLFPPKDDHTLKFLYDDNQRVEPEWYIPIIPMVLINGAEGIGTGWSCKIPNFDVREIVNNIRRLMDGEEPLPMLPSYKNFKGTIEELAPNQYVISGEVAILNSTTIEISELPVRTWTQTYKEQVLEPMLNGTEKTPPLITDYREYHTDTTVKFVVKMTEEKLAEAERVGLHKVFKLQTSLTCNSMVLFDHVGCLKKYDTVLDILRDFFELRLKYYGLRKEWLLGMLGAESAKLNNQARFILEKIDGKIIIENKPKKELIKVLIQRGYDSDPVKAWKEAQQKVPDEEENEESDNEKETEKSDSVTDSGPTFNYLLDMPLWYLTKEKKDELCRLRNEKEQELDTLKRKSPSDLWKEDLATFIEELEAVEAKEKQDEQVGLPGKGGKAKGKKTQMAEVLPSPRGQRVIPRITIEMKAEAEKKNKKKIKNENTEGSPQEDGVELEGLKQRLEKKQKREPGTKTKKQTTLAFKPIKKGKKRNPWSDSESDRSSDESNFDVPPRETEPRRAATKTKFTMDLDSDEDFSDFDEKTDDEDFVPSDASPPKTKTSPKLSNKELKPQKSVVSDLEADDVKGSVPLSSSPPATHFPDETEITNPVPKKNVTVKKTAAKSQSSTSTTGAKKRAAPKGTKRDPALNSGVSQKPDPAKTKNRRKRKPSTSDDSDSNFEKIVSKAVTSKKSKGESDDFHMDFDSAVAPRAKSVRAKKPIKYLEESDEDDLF

Row | Compound | pIC50 (MCF7) | inhibition [1] | pIC50 [2] | pIC50 (HCT-116) | pIC50 (HCC1937)
1 | NC(=O)c1cccc2[nH]c(-c3cccc(N)c3)nc12 | < 4.30 |  | 7.52 |  | 
2 | NC(=O)c1cccc2nc(-c3ccc(N)cc3)[nH]c12 | < 4.30 |  | 7.52 |  | 
3 | NC(=O)c1cccc2[nH]c(-c3ccccc3N)nc12 | < 4.30 |  | < 4.30 |  | 
4 | COc1ccc2nc3ccccc3c(Nc3cccc(-c4nc5c(C(N)=O)cccc5[nH]4)c3)c2c1 | 4.34 | Active | 5.94 |  | 
5 | CCCCc1ccc2nc3ccccc3c(Nc3ccc(-c4nc5c(C(N)=O)cccc5[nH]4)cc3)c2c1 | < 4.30 | Active | 6.89 |  | 
6 | NC(=O)c1cccc2[nH]c(-c3ccccc3Nc3c4ccccc4nc4ccccc34)nc12 | < 4.30 | Active | 5.70 |  | 
7 | CCCCc1ccc2nc3ccccc3c(Nc3cccc(-c4nc5c(C(N)=O)cccc5[nH]4)c3)c2c1 | < 4.30 | Active | 6.49 |  | 
8 | Cc1ccc2nc3ccccc3c(Nc3ccc(-c4nc5c(C(N)=O)cccc5[nH]4)cc3)c2c1 | 4.41 | Active | 7.00 |  | 

More lines, in order of rising pIC50 (MCF7), values ahead:

Row | pIC50 (MCF7) | inhibition [1] | pIC50 [2] | pIC50 (HCT-116) | pIC50 (HCC1937) | Compound
9 | 4.41 | Active | 6.85 |  |  | Cc1cccc2c(Nc3ccc(-c4nc5c(C(N)=O)cccc5[nH]4)cc3)c3ccccc3nc12
10 | 4.42 | Active | 6.60 |  |  | COc1ccc2nc3ccccc3c(Nc3ccc(-c4nc5c(C(N)=O)cccc5[nH]4)cc3)c2c1
11 | 4.44 |  |  | 4.82 | 5.30 | O=C(c1cc(Cc2n[nH]c(=O)c3ccccc23)ccc1F)N1CCN(C(=O)C2CC2)CC1 [OLAPARIB]
12 | 4.44 |  | 5.86 |  |  | NC(=O)c1cccc2[nH]c(-c3cccc(Nc4c5ccccc5nc5ccccc45)c3)nc12
13 | 4.53 | Active | 6.29 |  |  | Cc1ccc2nc3ccccc3c(Nc3cccc(-c4nc5c(C(N)=O)cccc5[nH]4)c3)c2c1
14 | 4.58 |  |  |  |  | c1ccc2[nH]c(-c3ccc(Nc4c5ccccc5nc5ccccc45)cc3)nc2c1
15 | 4.59 | Active | 6.01 |  |  | COc1cccc2c(Nc3cccc(-c4nc5c(C(N)=O)cccc5[nH]4)c3)c3ccccc3nc12
16 | 4.66 | Active | 5.77 |  |  | COc1ccc2nc3ccccc3c(Nc3ccccc3-c3nc4c(C(N)=O)cccc4[nH]3)c2c1
17 | 4.88 | Active | 6.72 |  |  | COc1cccc2c(Nc3ccc(-c4nc5c(C(N)=O)cccc5[nH]4)cc3)c3ccccc3nc12
18 | 4.92 | Active | 7.05 |  |  | NC(=O)c1cccc2[nH]c(-c3ccc(Nc4c5ccccc5nc5ccccc45)cc3)nc12
19 | 5.06 |  |  | 5.41 | 5.11 | COc1cc(NS(C)(=O)=O)ccc1Nc1c2ccccc2nc2ccccc12 [AMSACRINE]

Reference: ChEMBL document CHEMBL4130375, “Design, synthesis and biological evaluation of 4-amidobenzimidazole acridine derivatives as dual PARP and Topo inhibitors for cancer therapy” (Eur J Med Chem, 2017)
